Patent publication US10759814B2, “Pharmaceutical compositions containing substituted polycyclic pyridone derivatives and prodrug thereof” (priority 2016, dated 2020)
Several values for one entry are separate records, joined by “and”; a condition that tells them apart may be missing. Equal entries are not always repeated. Where two headings read alike, the source gives them in different places.

Columns and labels:
[1] = assay type: in vivo; settings: after oral administration of Compound II-6 to rat under non-fasting conditions
Description: FIG. 1 is a result of measuring the plasma concentration of Compound III-2, after oral administration of prodrug Compound II-6, the parent compound of which is Compound III-2, to rat under non-fasting conditions.
FIG. 2 is a result of measuring the plasma concentration of Compound II-6, after oral administration of prodrug Compound II-6, the parent compound of which is Compound III-2, to rat under non-fasting conditions.
Test Example 13: Transition of Plasma Concentration
The plasma concentration of Compound III-2 and Compound II-6 after oral administration of prodrug Compound II-6, the parent compound of which was Compound III-2, to rat under non-fasting conditions was measured.

influenza virus [2] = assay type: in vivo, human
[3] = assay type: in vivo, human; settings: Compound II-6 single 40 or 80 mg; Oseltamivir 75 mg twice a day for 5 days
Description: (4) Incidence of side effects
(4) Incidence of Side Effects
The number of side-effect episodes and the number of patients with side effect were counted for each administration group.

influenza virus [4] = test: Clinical test (Test Example 15): time to alleviation of influenza symptoms; settings: for Time to alleviation of influenza symptoms, difference from placebo / Time to alleviation of influenza symptoms, hazard ratio (Cox proportional hazard model relative to placebo) / Time to alleviation of influenza symptoms, median value: ITTI; for Time to alleviation of influenza symptoms, median value: influenza patients 20 to <65 years old; for Time until cough symptom is alleviated, median value / Time until fatigue symptom is alleviated, median value / Time until feverishness or chills symptom is alleviated, median value / Time until headache symptom is alleviated, median value / Time until muscular or joint pain symptom is alleviated, median value / Time until nasal congestion symptom is alleviated, median value / Time until sore throat symptom is alleviated, median value: patients with symptom moderate or severe at baseline
Description: Test Example 15: Clinical Test
As for the primary endpoint, subjects made evaluations by themselves on a 4-point scale [0: none, 1: mild, 2: moderate, 3: severe] concerning the time to alleviation of influenza symptoms (the time from the beginning of administration of the investigational drug until 7 influenza symptoms (“cough”, “sore throat”, “headache”, “nasal congestion”, “feverishness or chills”, “muscular or joint pain”, and “fatigue”) were alleviated) to evaluate the efficacy of the investigational drug over the placebo.
Patients who satisfied all of the following criteria were selected as subjects.
(a) Male or female patients at 20 years old or older and younger than 65 years old
(b) Patients satisfying all of the following criteria and diagnosed with influenza virus infectious disease
The main efficacy endpoint is the time to alleviation of influenza symptoms (the time to alleviation of influenza symptoms).
It is the time from the beginning of administration until alleviation of influenza symptoms. Alleviation of influenza symptoms refers to when all 7 influenza symptoms (cough, sore throat, headache, nasal congestion, feverishness or chills, muscular or joint pain, fatigue) become “0: none” or “1: mild” in the patient diary that the subject keeps, and this condition continues at least 21.5 hours (24 hours—10%).
Secondary Efficacy Endpoint
The secondary efficacy endpoint is as follows.
(1) Time to Alleviation of Each Influenza Symptom
It is the time from the beginning of administration until alleviation of each influenza symptom. Alleviation of a symptom refers to when the target item becomes “0: none” or “1: mild”, and this condition continues at least 21.5 hours (24 hours—10%).
Analysis of Primary Endpoint
As for the time to alleviation of influenza symptoms, which is the primary endpoint, the primary analysis and the secondary analysis are described. In addition to the ITTI group, the primary analysis was also performed on the PPS group for sensitivity analysis. Other analyses were performed only on the ITTI group.
The hazard ratio, 95% confidence interval, and P value of each administered group relative to the placebo group were calculated by a Cox proportional hazard model using the time to alleviation of influenza symptoms as a response, the administered groups as fixed effects, and the current smoking habit and the total score of 7 influenza symptoms at baseline before administration, which are allocation factors, as covariates. In order to prevent an increase of the probability of type I error due to performing the test multiple times, the P value was adjuste d by the Hommel's method.
The placebo group and each investigational drug administered group were compared by stratified generalized Wilcoxon test using the time to alleviation of influenza symptoms as a response, the administered groups as explanatory variables, and the category (11 points or less, 12 points or more) of the total score of 7 influenza symptoms before administration and the smoking habit, which are allocation factors, as stratification factors.
Also, a Kaplan-Meier survival curve was drawn for each group to calculate the median time to alleviation of influenza symptoms and the 95% confidence interval thereof. The Greenwood's method was used for calculating the confidence interval.
Analysis of Secondary Endpoint
(1) Time Until Each Alleviation of Influenza Symptom
The same analysis as in the primary endpoint was performed, with the time until each alleviation of influenza symptom being regarded as a response. At this time, cases where the symptom before administration was “0: none” or “1: mild” were excluded from the analysis target.

[5] = Day 2 (24 hours later), 12 to <65 years old
[6] = Day 2 (24 hours later), 20 to <65 years old
[7] = Day 3 (48 hours later), 12 to <65 years old
[8] = Day 3 (48 hours later), 20 to <65 years old
[9] = Day 4 (72 hours later), 12 to <65 years old
[10] = Day 4 (72 hours later), 20 to <65 years old
[11] = Day 5 (96 hours later), 12 to <65 years old
[12] = Day 5 (96 hours later), 20 to <65 years old
[13] = Day 6 (120 hours later), 12 to <65 years old
[14] = Day 6 (120 hours later), 20 to <65 years old
[15] = Day 9 (192 hours later), 12 to <65 years old
[16] = Day 9 (192 hours later), 20 to <65 years old

SMILES: COC(=O)OCOc1c2n(ccc1=O)N([C@@H]1c3ccccc3SCc3c1ccc(F)c3F)[C@@H]1COCCN1C2=O [II-6]
- plasma concentration of Compound II-6 [1]: a determination limit or less
- Time (median) to termination of viral shedding based on virus titer (influenza virus [2]; 12 to <65 years old): 24.0 h
- Time to termination of viral shedding, difference between groups vs placebo (influenza virus [2]; 12 to <65 years old): -72.0 h
- Time to termination of viral shedding, difference between groups vs Oseltamivir (influenza virus [2]; 20 to <65 years old): -48.0 h
- Amount of change in virus titer from baseline, mean (influenza virus [2]; [5]): −4.44 log10 [TCID50/mL]
- Proportion of patients having a positive influenza virus titer (influenza virus [2]; [5]): 47.8%
- Amount of change in virus titer from baseline, mean (influenza virus [2]; [6]): −4.39 log10 [TCID50/mL]
- Proportion of patients having a positive influenza virus titer (influenza virus [2]; [6]): 47.6%
- Amount of change in virus titer from baseline, mean (influenza virus [2]; [7]): −4.82 log10 [TCID50/mL]
- Proportion of patients having a positive influenza virus titer (influenza virus [2]; [7]): 21.5%
- Amount of change in virus titer from baseline, mean (influenza virus [2]; [8]): −4.78 log10 [TCID50/mL]
- Proportion of patients having a positive influenza virus titer (influenza virus [2]; [8]): 19.8%
- Amount of change in virus titer from baseline, mean (influenza virus [2]; [9]): −4.50 log10 [TCID50/mL]
- Proportion of patients having a positive influenza virus titer (influenza virus [2]; [9]): 16.7%
- Amount of change in virus titer from baseline, mean (influenza virus [2]; [10]): −4.46 log10 [TCID50/mL]
- Proportion of patients having a positive influenza virus titer (influenza virus [2]; [10]): 16.1%
- Amount of change in virus titer from baseline, mean (influenza virus [2]; [11]): −4.95 log10 [TCID50/mL]
- Proportion of patients having a positive influenza virus titer (influenza virus [2]; [11]): 13.6%
- Amount of change in virus titer from baseline, mean (influenza virus [2]; [12]): −4.95 log10 [TCID50/mL]
- Proportion of patients having a positive influenza virus titer (influenza virus [2]; [12]): 13.0%
- Amount of change in virus titer from baseline, mean (influenza virus [2]; [13]): −4.58 log10 [TCID50/mL]
- Proportion of patients having a positive influenza virus titer (influenza virus [2]; [13]): 8.2%
- Amount of change in virus titer from baseline, mean (influenza virus [2]; [14]): −4.56 log10 [TCID50/mL]
- Proportion of patients having a positive influenza virus titer (influenza virus [2]; [14]): 5.6%
- Amount of change in virus titer from baseline, mean (influenza virus [2]; [15]): −5.06 log10 [TCID50/mL]
- Proportion of patients having a positive influenza virus titer (influenza virus [2]; [15]): 2.9%
- Amount of change in virus titer from baseline, mean (influenza virus [2]; [16]): −5.03 log10 [TCID50/mL]
- Proportion of patients having a positive influenza virus titer (influenza virus [2]; [16]): 3.0%
- Incidence of adverse events the causal relationship of which cannot be denied (patients) [3]: 4.4%
- Time until cough symptom is alleviated, difference from placebo (influenza virus [4]; single oral 10 mg): -0.1 h
- Time until cough symptom is alleviated, hazard ratio (Cox model relative to placebo) (influenza virus [4]; single oral 10 mg): 0.941
- Time until fatigue symptom is alleviated, difference from placebo (influenza virus [4]; single oral 10 mg): -10.7 h
- Time until fatigue symptom is alleviated, hazard ratio (Cox model relative to placebo) (influenza virus [4]; single oral 10 mg): 0.783
- Time until feverishness or chills symptom is alleviated, difference from placebo (influenza virus [4]; single oral 10 mg): -4.1 h
- Time until feverishness or chills symptom is alleviated, hazard ratio (Cox model relative to placebo) (influenza virus [4]; single oral 10 mg): 0.635
- Time until headache symptom is alleviated, difference from placebo (influenza virus [4]; single oral 10 mg): -1.5 h
- Time until headache symptom is alleviated, hazard ratio (Cox model relative to placebo) (influenza virus [4]; single oral 10 mg): 0.803
- Time until muscular or joint pain symptom is alleviated, difference from placebo (influenza virus [4]; single oral 10 mg): -10.7 h
- Time until muscular or joint pain symptom is alleviated, hazard ratio (Cox model relative to placebo) (influenza virus [4]; single oral 10 mg): 0.77
- Time until nasal congestion symptom is alleviated, difference from placebo (influenza virus [4]; single oral 10 mg): -17.6 h
- Time until nasal congestion symptom is alleviated, hazard ratio (Cox model relative to placebo) (influenza virus [4]; single oral 10 mg): 0.742
- Time until sore throat symptom is alleviated, difference from placebo (influenza virus [4]; single oral 10 mg): 9.1 h
- Time until sore throat symptom is alleviated, hazard ratio (Cox model relative to placebo) (influenza virus [4]; single oral 10 mg): 1.312
- Time to alleviation of influenza symptoms, difference from placebo (influenza virus [4]; single oral 10 mg): -23.4 h
- Time to alleviation of influenza symptoms, hazard ratio (Cox proportional hazard model relative to placebo) (influenza virus [4]; single oral 10 mg): 0.758
- Time to alleviation of influenza symptoms, median value (influenza virus [4]; single oral 10 mg): 54.2 h
- Time until cough symptom is alleviated, median value (influenza virus [4]; single oral 10 mg): 31.1 h
- Time until fatigue symptom is alleviated, median value (influenza virus [4]; single oral 10 mg): 32 h
- Time until feverishness or chills symptom is alleviated, median value (influenza virus [4]; single oral 10 mg): 24.7 h
- Time until headache symptom is alleviated, median value (influenza virus [4]; single oral 10 mg): 42.2 h
- Time until muscular or joint pain symptom is alleviated, median value (influenza virus [4]; single oral 10 mg): 31.2 h
- Time until nasal congestion symptom is alleviated, median value (influenza virus [4]; single oral 10 mg): 25.2 h
- Time until sore throat symptom is alleviated, median value (influenza virus [4]; single oral 10 mg): 35.3 h
- Time until cough symptom is alleviated, difference from placebo (influenza virus [4]; single oral 20 mg): -1.4 h
- Time until cough symptom is alleviated, hazard ratio (Cox model relative to placebo) (influenza virus [4]; single oral 20 mg): 0.883
- Time until fatigue symptom is alleviated, difference from placebo (influenza virus [4]; single oral 20 mg): -11.5 h
- Time until fatigue symptom is alleviated, hazard ratio (Cox model relative to placebo) (influenza virus [4]; single oral 20 mg): 0.876
- Time until feverishness or chills symptom is alleviated, difference from placebo (influenza virus [4]; single oral 20 mg): 0.6 h
- Time until feverishness or chills symptom is alleviated, hazard ratio (Cox model relative to placebo) (influenza virus [4]; single oral 20 mg): 0.848
- Time until headache symptom is alleviated, difference from placebo (influenza virus [4]; single oral 20 mg): -6.7 h
- Time until headache symptom is alleviated, hazard ratio (Cox model relative to placebo) (influenza virus [4]; single oral 20 mg): 0.936
- Time until muscular or joint pain symptom is alleviated, difference from placebo (influenza virus [4]; single oral 20 mg): -12 h
- Time until muscular or joint pain symptom is alleviated, hazard ratio (Cox model relative to placebo) (influenza virus [4]; single oral 20 mg): 0.687
- Time until nasal congestion symptom is alleviated, difference from placebo (influenza virus [4]; single oral 20 mg): -21.3 h
- Time until nasal congestion symptom is alleviated, hazard ratio (Cox model relative to placebo) (influenza virus [4]; single oral 20 mg): 0.59
- Time until sore throat symptom is alleviated, difference from placebo (influenza virus [4]; single oral 20 mg): 1.5 h
- Time until sore throat symptom is alleviated, hazard ratio (Cox model relative to placebo) (influenza virus [4]; single oral 20 mg): 1.05
- Time to alleviation of influenza symptoms, difference from placebo (influenza virus [4]; single oral 20 mg): -26.6 h
- Time to alleviation of influenza symptoms, hazard ratio (Cox proportional hazard model relative to placebo) (influenza virus [4]; single oral 20 mg): 0.81
- Time to alleviation of influenza symptoms, median value (influenza virus [4]; single oral 20 mg): 51.0 h and 51 h
- Time until cough symptom is alleviated, median value (influenza virus [4]; single oral 20 mg): 29.8 h
- Time until fatigue symptom is alleviated, median value (influenza virus [4]; single oral 20 mg): 31.3 h
- Time until feverishness or chills symptom is alleviated, median value (influenza virus [4]; single oral 20 mg): 29.4 h
- Time until headache symptom is alleviated, median value (influenza virus [4]; single oral 20 mg): 37 h
- Time until muscular or joint pain symptom is alleviated, median value (influenza virus [4]; single oral 20 mg): 29.9 h
- Time until nasal congestion symptom is alleviated, median value (influenza virus [4]; single oral 20 mg): 21.6 h
- Time until sore throat symptom is alleviated, median value (influenza virus [4]; single oral 20 mg): 27.8 h
- Time until cough symptom is alleviated, difference from placebo (influenza virus [4]; single oral 40 mg): -6.6 h
- Time until cough symptom is alleviated, hazard ratio (Cox model relative to placebo) (influenza virus [4]; single oral 40 mg): 0.865
- Time until fatigue symptom is alleviated, difference from placebo (influenza virus [4]; single oral 40 mg): -11.7 h
- Time until fatigue symptom is alleviated, hazard ratio (Cox model relative to placebo) (influenza virus [4]; single oral 40 mg): 0.724
- Time until feverishness or chills symptom is alleviated, difference from placebo (influenza virus [4]; single oral 40 mg): -5.8 h
- Time until feverishness or chills symptom is alleviated, hazard ratio (Cox model relative to placebo) (influenza virus [4]; single oral 40 mg): 0.71
- Time until headache symptom is alleviated, difference from placebo (influenza virus [4]; single oral 40 mg): -5.8 h
- Time until headache symptom is alleviated, hazard ratio (Cox model relative to placebo) (influenza virus [4]; single oral 40 mg): 0.655
- Time until muscular or joint pain symptom is alleviated, hazard ratio (Cox model relative to placebo) (influenza virus [4]; single oral 40 mg): 0.657
- Time until nasal congestion symptom is alleviated, hazard ratio (Cox model relative to placebo) (influenza virus [4]; single oral 40 mg): 0.564
- Time until sore throat symptom is alleviated, difference from placebo (influenza virus [4]; single oral 40 mg): 5.6 h
- Time until sore throat symptom is alleviated, hazard ratio (Cox model relative to placebo) (influenza virus [4]; single oral 40 mg): 1.092
- Time to alleviation of influenza symptoms, difference from placebo (influenza virus [4]; single oral 40 mg): -28.2 h
- Time to alleviation of influenza symptoms, hazard ratio (Cox proportional hazard model relative to placebo) (influenza virus [4]; single oral 40 mg): 0.817
- Time to alleviation of influenza symptoms, median value (influenza virus [4]; single oral 40 mg): 49.5 h
- Time until cough symptom is alleviated, median value (influenza virus [4]; single oral 40 mg): 24.6 h
- Time until fatigue symptom is alleviated, median value (influenza virus [4]; single oral 40 mg): 31.1 h
- Time until feverishness or chills symptom is alleviated, median value (influenza virus [4]; single oral 40 mg): 23 h
- Time until headache symptom is alleviated, median value (influenza virus [4]; single oral 40 mg): 37.9 h
- Time until muscular or joint pain symptom is alleviated, median value (influenza virus [4]; single oral 40 mg): 25.4 h
- Time until nasal congestion symptom is alleviated, median value (influenza virus [4]; single oral 40 mg): 21.9 h
- Time until sore throat symptom is alleviated, median value (influenza virus [4]; single oral 40 mg): 31.9 h
